Laboratory results reported in ChEMBL document CHEMBL4800730 (2021).

What was measured:
[1] = biological target: RAC-alpha serine/threonine-protein kinase (Homo sapiens, UniProt P31749); experiment: Homogeneous Time Resolved Fluorescence (HTRF) assay (AKT1)
[2] = NanoBRET assay (AKT1); details: Homo sapiens
[3] = NanoBRET assay (AKT2); details: Homo sapiens
[4] = NanoBRET assay (AKT3); details: Homo sapiens
[5] = system: ZR-75-1; experiment: CellTiter-Glo luminescent cell viability assay (CTG) with ZR-75-1 cells; type: functional, cell-based; details: Homo sapiens
[6] = system: AN3-CA; experiment: CellTiter-Glo luminescent cell viability assay (CTG) with AN3-CA cells; type: functional, cell-based; details: Homo sapiens

RAC-alpha serine/threonine-protein kinase, sequence (P31749 whole entry): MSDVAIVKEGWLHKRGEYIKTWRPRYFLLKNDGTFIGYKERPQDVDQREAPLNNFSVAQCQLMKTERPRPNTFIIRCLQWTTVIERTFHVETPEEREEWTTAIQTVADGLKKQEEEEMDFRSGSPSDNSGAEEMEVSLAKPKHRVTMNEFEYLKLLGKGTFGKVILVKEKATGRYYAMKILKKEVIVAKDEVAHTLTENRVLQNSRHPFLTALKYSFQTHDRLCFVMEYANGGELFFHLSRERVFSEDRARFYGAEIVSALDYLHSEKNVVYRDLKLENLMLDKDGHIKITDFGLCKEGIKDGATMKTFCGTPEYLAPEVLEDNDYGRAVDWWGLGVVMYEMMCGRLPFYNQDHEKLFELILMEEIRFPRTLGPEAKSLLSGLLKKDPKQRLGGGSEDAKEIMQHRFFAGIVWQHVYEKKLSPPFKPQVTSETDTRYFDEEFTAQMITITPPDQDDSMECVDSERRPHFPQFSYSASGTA

Structure (SMILES): C=CC(=O)Nc1ccc2[nH]c(=O)n(C3CCN(Cc4ccc(-c5ccc6c(c5)NC(=O)CO6)cc4)CC3)c2c1 [RL2578]
- IC50 [1]: 9.2 µM (not active)
- EC50 [2]: 3.5 µM (not active)
- IC50 [2]: 1.9 µM (not active)
- EC50 [3]: 4.8 µM (not active)
- IC50 [3]: 8.3 µM (not active)
- EC50 [4]: 9.3 µM (not active)
- IC50 [4]: 18 µM (not active)
- EC50 [5]: 4.2 µM (not active)
- EC50 [6]: 18 µM (not active)
